Earlier results in patent US11026985B2, “Methods for removing contaminants from plant-derived pharmaceuticals” (priority 2018, dated 2021).

Test system: humans
Settings: not given

In the case of CCCCOCCOCCOCc1cc2c(cc1CCC)OCO2 [Piperonyl butoxide], the toxicity to humans is given as “non-toxic”.

Test system: not given
Settings: permissible limit in Cannabis, State of Oregon

Compared with Cc1c(COC(=O)[C@@H]2[C@H](/C=C(\Cl)C(F)(F)F)C2(C)C)cccc1-c1ccccc1 (racemic) [Bifenthrin], COP(=O)(NC(C)=O)SC (stereo not shown) [Acephate] is higher in “Action Level (ppm)” value: 0.2 ppm for the first, 0.4 ppm for the second.

Going from CCCCCCCCCCCCC1=C(OC(C)=O)C(=O)c2ccccc2C1=O [Acequinocyl] to C/C(=N\C#N)N(C)Cc1ccc(Cl)nc1 [Acetamiprid], the “Action Level (ppm)” value falls from 2 ppm to 0.2 ppm.

First: CNC(=O)O/N=C/C(C)(C)SC [Aldicarb]
Second: COc1ccc(-c2ccccc2)cc1NNC(=O)OC(C)C [Bifenazate]
The “Action Level (ppm)” value of the first is higher: 0.4 ppm for the first, 0.2 ppm for the second.

Compared with O=C(Nc1ccccc1-c1ccc(Cl)cc1)c1cccnc1Cl [Boscalid], CNC(=O)Oc1cccc2ccccc12 [Carbaryl] is lower in “Action Level (ppm)” value: 0.4 ppm for the first, 0.2 ppm for the second.

CNC(=O)Oc1cccc2c1OC(C)(C)C2 [Carbofuran] and CNC(=O)c1cc(Cl)cc(C)c1NC(=O)c1cc(Br)nn1-c1ncccc1Cl [Chlorantraniliprole] are the same in “Action Level (ppm)” value: 0.2 ppm for the first, 0.2 ppm for the second.

CCOCn1c(-c2ccc(Cl)cc2)c(C#N)c(Br)c1C(F)(F)F [Chlorfenapyr] and CC1(C)C(C=C(Cl)Cl)C1C(=O)OC(C#N)c1ccc(F)c(Oc2ccccc2)c1 (stereo not shown) [Cyfluthrin] are the same in “Action Level (ppm)” value: 1 ppm for the first, 1 ppm for the second.

Compared with COP(=O)(OC)OC=C(Cl)Cl [DDVP (Dichlorvos)], CCOP(=S)(OCC)Oc1cc(C)nc(C(C)C)n1 [Diazinon] is higher in “Action Level (ppm)” value: 0.1 ppm for the first, 0.2 ppm for the second.

Going from CNC(=O)CSP(=S)(OC)OC [Dimethoate] to CCOc1ccc(C(C)(C)COCc2cccc(Oc3ccccc3)c2)cc1 [Etofenprox], the “Action Level (ppm)” value rises from 0.2 ppm to 0.4 ppm.

CCOc1cc(C(C)(C)C)ccc1C1COC(c2c(F)cccc2F)=N1 (stereo not shown) [Etoxazole] and CCOC(=O)NCCOc1ccc(Oc2ccccc2)cc1 [Fenoxycarb] are the same in “Action Level (ppm)” value: 0.2 ppm for the first, 0.2 ppm for the second.

Cc1nn(C)c(Oc2ccccc2)c1/C=N/OCc1ccc(C(=O)OC(C)(C)C)cc1 [Fenpyroximate] and N#Cc1nn(-c2c(Cl)cc(C(F)(F)F)cc2Cl)c(N)c1[S+]([O-])C(F)(F)F (stereo not shown) [Fipronil] are the same in “Action Level (ppm)” value: 0.4 ppm for the first, 0.4 ppm for the second.

Going from N#CCNC(=O)c1cnccc1C(F)(F)F [Flonicamid] to N#Cc1c[nH]cc1-c1cccc2c1OC(F)(F)O2 [Fludioxonil], the “Action Level (ppm)” value falls from 1 ppm to 0.4 ppm.

First: CC1C(c2ccc(Cl)cc2)SC(=O)N1C(=O)NC1CCCCC1 (stereo not shown) [Hexythiazox]
Second: C=CCOC(Cn1ccnc1)c1ccc(Cl)cc1Cl (stereo not shown) [Imazalil]
The “Action Level (ppm)” value of the first is higher: 1 ppm for the first, 0.2 ppm for the second.

O=[N+]([O-])NC1=NCCN1Cc1ccc(Cl)nc1 [Imidacloprid] and CO/N=C(/C(=O)OC)c1ccccc1COc1ccccc1C [Kresoxim-methyl, Kresoxim- methyl] are the same in “Action Level (ppm)” value: 0.4 ppm for the first, 0.4 ppm for the second.

CCCCC(CC)CN1C(=O)C2C3C=CC(C3)C2C1=O (stereo not shown) [MGK-264] and CCOC(=O)CC(SP(=S)(OC)OC)C(=O)OCC (stereo not shown) [Malathion] are the same in “Action Level (ppm)” value: 0.2 ppm for the first, 0.2 ppm for the second.

COCC(=O)N(c1c(C)cccc1C)C(C)C(=O)OC (stereo not shown) [Metalaxyl] and CNC(=O)Oc1cc(C)c(SC)c(C)c1 [Methiocarb] are the same in “Action Level (ppm)” value: 0.2 ppm for the first, 0.2 ppm for the second.

Going from CNC(=O)ON=C(C)SC [Methomyl] to CCCCC(C#N)(Cn1cncn1)c1ccc(Cl)cc1 (stereo not shown) [Myclobutanil], the “Action Level (ppm)” value falls from 0.4 ppm to 0.2 ppm.

Compared with COP(=O)(OC)OC(Br)C(Cl)(Cl)Br (stereo not shown) [Naled], CNC(=O)O/N=C(\SC)C(=O)N(C)C [Oxamyl] is higher in “Action Level (ppm)” value: 0.5 ppm for the first, 1 ppm for the second.

CC1(C)C(C=C(Cl)Cl)C1C(=O)OCc1cccc(Oc2ccccc2)c1 (stereo not shown) [Permethrins] and COP(=S)(OC)SCN1C(=O)c2ccccc2C1=O [Phosmet] are the same in “Action Level (ppm)” value: 0.2 ppm for the first, 0.2 ppm for the second.

Compared with C#CCC1=C(C)C(OC(=O)[C@@H]2[C@@H](C=C(C)C)C2(C)C)CC1=O (stereo partly shown) [Prallethrin], CCCC1COC(Cn2cncn2)(c2ccc(Cl)cc2Cl)O1 (stereo not shown) [Propiconazole] is higher in “Action Level (ppm)” value: 0.2 ppm for the first, 0.4 ppm for the second.

CNC(=O)Oc1ccccc1OC(C)C [Propoxur] and CC(C)(C)c1ccc(CSc2cnn(C(C)(C)C)c(=O)c2Cl)cc1 [Pyridaben] are the same in “Action Level (ppm)” value: 0.2 ppm for the first, 0.2 ppm for the second.

Cc1cc(C)c(C2=C(OC(=O)CC(C)(C)C)C3(CCCC3)OC2=O)c(C)c1 [Spiromesifen] and CCOC(=O)OC1=C(c2cc(C)ccc2C)C(=O)N[C@]12CC[C@@H](OC)CC2 [Spirotetramat] are the same in “Action Level (ppm)” value: 0.2 ppm for the first, 0.2 ppm for the second.

CCCN(CC)CC1COC2(CCC(C(C)(C)C)CC2)O1 (stereo not shown) [Spiroxamine] and CC(C)(C)C(O)(CCc1ccc(Cl)cc1)Cn1cncn1 (stereo not shown) [Tebuconazole] are the same in “Action Level (ppm)” value: 0.4 ppm for the first, 0.4 ppm for the second.

N#C/N=C1\SCCN1Cc1ccc(Cl)nc1 [Thiacloprid] and CN1COCN(Cc2cnc(Cl)s2)/C1=N\[N+](=O)[O-] [Thiamethoxam] are the same in “Action Level (ppm)” value: 0.2 ppm for the first, 0.2 ppm for the second.

First: CO/N=C(/C(=O)OC)c1ccccc1CO/N=C(\C)c1cccc(C(F)(F)F)c1 [Trifloxystrobin]
Second: Abamectin
The “Action Level (ppm)” value of the first is lower: 0.2 ppm for the first, 0.5 ppm for the second.

In the case of Spinosad, the “Action Level (ppm)” value is listed as 0.2 ppm.

Test system: not given
Settings: not given

For C=C(C)[C@@H]1CCC(C)=C[C@H]1c1c(O)cc(CCC)cc1O [Cannabidivarin], the “Water Soluble?” value is listed as “No”.
In the case of CCCCCc1cc(O)c(C/C=C(\C)CCC=C(C)C)c(O)c1 [Cannabigerol], the “Water Soluble?” value is listed as “No”.
